Measured values published in US20070072917A1, “Substituted 2-aminotetralin for the treatment of depression” (SRZ Properties, Inc., priority 2003, published 2007).
“Also recorded” adds a separate entry of the source.

Experiments:
[1] = tested on: rats; assay: learned helplessness test; type: in vivo; details: several days of administration, low concentrations / depending on the dose, vs vehicle control (HC)
Procedure: In the “learned helplessness test”, rats are repeatedly subjected to uncontrollable stress. This brings about an impaired learning ability in the animals in a later situation (for example after 48 hours) in which they could escape the stress again. Following the sub-chronic but not acute administration of antidepressants, the learning ability normalises again and the animals learn to escape the (announced) stress (in time) (Sherman, Pharmacology Biochemistry & Behavior 16, 1982, 449).

[2] = tested on: bulbectomised rats; assay: bulbectomy study (olfactory bulbs removed on both sides); type: in vivo, Sprague-Dawley rats; details: low doses, 3 minutes on test field
Procedure: In a further animal model (embodiment 3), it was examined whether the antidepressive effects of rotigotine can be distinguished from a general motor stimulation. In this case, rotigotine was administered to rats whose olfactory bulbs had been removed on both sides. The removal of the olfactory bulb leads to an adaptive hyperactivity in the untreated control group. It is known from literature that chronically administered antidepressants lead to a reduction in the movement activity of the animals in this model, whereas stimulants further increase the motor activity (van Riezen H et al, Br J. Pharmacol. 60(4), 1977, 521; Kelly J P et al, Pharmacol Ther. 74(3), 1997, 299). Therefore, it is possible to discriminate between antidepressive and non-specific stimulatory effects of an active ingredient with this model. […] The bulbectomy study was carried out on Sprague-Dawley rats. A sham-operated group, which was operated on without removal of the olfactory bulbs, served as a control group. 14 days after the operation, the rats were treated with vehicle, a rotigotine depot suspension (every second day) or imipramine. On test days, the rats were placed onto a test field and left to themselves for 3 minutes. The locomotor activities of the animals were thereby measured on the basis of the number of lines crossed.

[3] = tested on: rats; assay: forced swim test; type: in vivo; details: repeated swim test, subcutaneously applied
Description: The “forced swim test” is an animal model in which depressive episodes are triggered by acute stress. In this test, rats are forced to swim in a limited space. After initial attempts to save themselves, in which the animals realise the hopelessness of the situation, they lapse into immobility. On repetition of the experiment, the animals remain immobile from the start of the experiment. If the animals are pre-treated with antidepressants, the period of immobility in the repeated test is shortened and the animals generally commence search and escape movements immediately after transfer into the water basin (Porsolt, Biomedicine 30, 1979, 139).

CCCN(CCc1cccs1)C1CCc2c(O)cccc2C1 (single isomer, unassigned; (-)) [rotigotine, (−)-5,6,7,8-tetrahydro-6-[propyl[2-(2-thienyl)ethyl]amino]-1-naphthol]
learning behaviour [1]: significant antidepressive effect | bulbectomy-induced locomotor hyperactivity (number of lines crossed) [2]: almost complete suppression of the bulbectomy-induced locomotor hyperactivity; also recorded: significant antidepressive effect; also recorded: significantly reduce motor hyperactivity | period of immobility [3]: significant antidepressive effect; also recorded: clear reduction in the period of immobility | period of immobility ([3]; listed as Rotigotine): significantly shortened period of immobility
